Test results: patent publication US5061794A, “Cephalosporin derivatives, and antibacterial agents” (priority 1986, dated 1991)
≈ marks a conversion by molar mass, not a printed value. Where two headings read alike, the source gives them in different places.

What was measured:
E. cloacae 963 = experiment: in vitro antibacterial activity, agar plate dilution method (MIC); format: cell-based; conditions: 10^6 CFU/ml
Summary of the method: (§1)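 Overnight Mueller Hinton broth cultures were inoculated onto Mueller Hinton agar containing serial antibiotic concentrations at 10^6 CFU/ml. Plates were incubated at 37° C. for 16 hours, and MIC (μg/ml) was recorded.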

E. cloacae Nek 39 = experiment: as above; format: cell-based; conditions: Enterobacter cloacae, NEK39, 16 h, read-out: Minimum Inhibitory Concentration (MIC), *E. cloacae Nek 39, lactamase-producing strain; 10^6 CFU/ml
Summary of the method: as §1

E. coli GN5482 = experiment: as above; format: cell-based; conditions: Escherichia coli, GN5482, 16 h
Summary of the method: as §1

E. coli NIHJ JC2 = experiment: as above; format: cell-based; conditions: Escherichia coli, NIHJJC2, 16 h, read-out: Minimum Inhibitory Concentration (MIC), E. coli NIHJ JC2, 10^6 CFU/ml, 37° C.
Summary of the method: as §1

K. oxytoca GN10650 = experiment: as above; format: cell-based; conditions: Klebsiella oxytoca, GN10650, 16 h, read-out: Minimum Inhibitory Concentration (MIC), *K. oxytoca GN10650, lactamase-producing strain; 10^6 CFU/ml
Summary of the method: as §1

K. pneumoniae No. 42 = experiment: as above; format: cell-based; conditions: Klebsiella pneumoniae, NO.42, 16 h, read-out: Minimum Inhibitory Concentration (MIC), *K. pneumoniae No. 42, lactamase-producing strain; 10^6 CFU/ml
Summary of the method: as §1

K. pneumoniae PCI-602 = experiment: as above; format: cell-based; conditions: Klebsiella pneumoniae, PCI602, 16 h, read-out: Minimum Inhibitory Concentration (MIC), K. pneumoniae PCI-602; 10^6 CFU/ml
Summary of the method: as §1

M. morganii GN5407 = experiment: as above; format: cell-based; conditions: Morganella morganii, GN5407, 16 h, read-out: Minimum Inhibitory Concentration (MIC), *M. morganii GN5407, lactamase-producing strain; 10^6 CFU/ml
Summary of the method: as §1

P. vulgaris HX-19 = experiment: as above; format: cell-based; conditions: Proteus vulgaris, HX19, 16 h, read-out: Minimum Inhibitory Concentration (MIC)
Summary of the method: as §1

P. vulgaris No. 33 = experiment: as above; format: cell-based; conditions: Proteus vulgaris, NO.33, 16 h, read-out: Minimum Inhibitory Concentration (MIC), *P. vulgaris No. 33, lactamase-producing strain; 10^6 CFU/ml
Summary of the method: as §1

S. aureus 209P NIHJ-JC1 = experiment: as above; format: cell-based; conditions: Staphylococcus aureus, 16 h
Summary of the method: as §1

S. marcescens IAM 1184 = experiment: as above; format: cell-based; conditions: Serratia marcescens, IAM1184, 16 h, read-out: Minimum Inhibitory Concentration (MIC)
Summary of the method: as §1

S. marcescens No. 16-2 = experiment: as above; format: cell-based; conditions: Serratia marcescens, NO.162, 16 h
Summary of the method: as §1

Ps. aeruginosa AK 109 = experiment: as above; format: cell-based, Pseudomonas aeruginosa; conditions: Pseudomonas aeruginosa, AK109, 16 h
Summary of the method: as §1

Ps. aeruginosa IF03445 = experiment: as above; format: cell-based, Pseudomonas aeruginosa; conditions: Pseudomonas aeruginosa, IF03445, 16 h, read-out: Minimum Inhibitory Concentration (MIC), Ps. aeruginosa IF03445; 10^6 CFU/ml
Summary of the method: as §1

A. calcoaceticus No. 4 = experiment: as above; format: cell-based, Acinetobacter calcoaceticus; conditions: Acinetobacter calcoaceticus, NO.4, 16 h, read-out: Minimum Inhibitory Concentration (MIC), A. calcoaceticus No. 4; 10^6 CFU/ml
Summary of the method: as §1

[1] = concentration in blood of mice after subcutaneous administration; format: in vivo, mice (ddY type, male); conditions: mouse, sc, 20 mg/kg
E. coli CSH(RE45) = experiment: microbe, parasite or virus in culture; format: cell-based; conditions: Escherichia coli, 16 h, read-out: Minimum Inhibitory Concentration (MIC), *E. coli CSH(RE45), lactamase-producing strain; 10^6 CFU/ml
Summary of the method: as §1

E. coli CSH2 (RK1) = experiment: microbe, parasite or virus in culture; format: cell-based; conditions: Escherichia coli, 16 h, read-out: Minimum Inhibitory Concentration (MIC), *E. coli CSH2 (RK1), lactamase-producing strain; 10^6 CFU/ml
Summary of the method: as §1

Ps. aeruginosa AKR17 = experiment: in vitro antibacterial activity, agar plate dilution method (MIC); format: cell-based, Pseudomonas aeruginosa; conditions: Pseudomonas aeruginosa, read-out: Minimum Inhibitory Concentration (MIC)
Summary of the method: as §1

Ps. cepacia 23 = experiment: as above; format: cell-based, Pseudomonas cepacia; conditions: read-out: Minimum Inhibitory Concentration (MIC)
Summary of the method: as §1

[2] = Enterobacter cloacae, 963, 16 h, read-out: Minimum Inhibitory Concentration (MIC), E. cloacae 963
[3] = read-out: Minimum Inhibitory Concentration (MIC)
[4] = read-out: Minimum Inhibitory Concentration (MIC), *E. coli GN5482, lactamase-producing strain, 10^6 CFU/ml
[5] = S. marcescens IAM 1184, 10^6 CFU/ml
[6] = 16 h, Ps. aeruginosa AKR17, 10^6 CFU/ml
[7] = Burkholderia cepacia, 16 h, Ps. cepacia 23, 10^6 CFU/ml
[8] = read-out: Minimum Inhibitory Concentration (MIC), *S. marcescens No. 16-2, lactamase-producing strain, 10^6 CFU/ml
[9] = Enterobacter cloacae, 16 h, E. cloacae 963, read-out: Minimum Inhibitory Concentration (MIC)

Row | Structure (SMILES) | MIC (E. cloacae 963; [2]) [µg/mL] | MIC (E. cloacae Nek 39) [µg/mL] | MIC (E. coli GN5482; [3]) [µg/mL] | MIC (E. coli NIHJ JC2) [µg/mL] | MIC (K. oxytoca GN10650) [µg/mL] | MIC (K. pneumoniae No. 42) [µg/mL] | MIC (K. pneumoniae PCI-602) [µg/mL] | MIC (M. morganii GN5407) [µg/mL] | MIC (P. vulgaris HX-19) [µg/mL] | MIC (P. vulgaris No. 33) [µg/mL] | MIC (S. aureus 209P NIHJ-JC1; [3]) [µg/mL] | MIC (Ps. aeruginosa AK 109; [3]) [µg/mL] | MIC (Ps. aeruginosa IF03445) [µg/mL] | MIC (A. calcoaceticus No. 4) [µg/mL] | MIC (E. coli CSH(RE45)) [µg/mL] | MIC (E. coli CSH2 (RK1)) [µg/mL] | MIC (S. marcescens IAM 1184; [5]) [µg/mL] | MIC (Ps. aeruginosa AKR17; [6]) [µg/mL] | MIC (Ps. cepacia 23; [7]) [µg/mL] | MIC (S. marcescens No. 16-2; [8]) [µg/mL] | also measured
1 | CC(C)(O/N=C(\C(=O)N[C@@H]1C(=O)N2C(C(=O)[O-])=C(C[n+]3ccccc3)CS[C@H]12)c1csc(N)n1)C(=O)O [ceftazidime, reference compound] | 0.1 (≈ 0.183 µM) | 1.56 (≈ 2.85 µM) | 1.56 (≈ 2.85 µM) | 0.1 (≈ 0.183 µM) | 0.1 (≈ 0.183 µM) | 0.39 (≈ 0.714 µM) | 0.025 (≈ 0.0457 µM) | 0.1 (≈ 0.183 µM) | 0.025 (≈ 0.0457 µM) | 0.05 (≈ 0.0915 µM) | 6.25 (≈ 11.4 µM) | 0.78 (≈ 1.43 µM) | 1.56 (≈ 2.85 µM) | 6.25 (≈ 11.4 µM) |  |  |  |  |  |  | MIC (S. marcescens IAM 1184): < 0.006 µg/mL; MIC (S. marcescens No. 16-2; [3]): 1.56 µg/mL (≈ 2.85 µM); concentration at 0.125 h ([1]; 7.5 min): 25400 ng/mL; concentration at 0.25 h ([1]; 15 min): 24100 ng/mL; concentration at 0.5 h ([1]; 30 min): 17300 ng/mL; concentration at 1 h ([1]; 60 min): 3300 ng/mL; concentration at 2 h ([1]; 120 min): 200 ng/mL
2 | CON=C(C(=O)NC1C(=O)N2C(C(=O)O)=C(CSc3nc(-c4ccc(O)c(O)c4)cs3)CSC12)c1csc(N)n1 (stereo not drawn) [compound 39, sodium 7β-[2-(2-aminothiazol-4-yl)-2-methoxviminoacetamido]-3-[4-(3,4-dihydroxyphenvl)-thiazol-2-yl]thiomethyl-3-cephem-4-carboxylate] | 0.025 | 0.39 |  | 0.1 | 1.56 | 0.2 | < 0.006 | 0.05 |  | 0.05 |  | 3.12 | 1.56 | 0.39 | 0.1 | 0.0125 | 0.05 | > 100 | 0.2 |  | MIC (E. coli GN5482; [4]): 0.78 µg/mL; MIC (P. vulgaris HX-19; P. vulgaris HX-19, 10^6 CFU/ml): < 0.006 µg/mL; MIC (S. aureus 209P NIHJ-JC1; read-out: Minimum Inhibitory Concentration (MIC), S. aureus 209P NIHJ-JC1, 10^6 CFU/ml, 37° C., 16 hours): 1.56 µg/mL; MIC (S. marcescens No. 16-2; [3]): 3.12 µg/mL
3 | CCON=C(C(=O)N[C@@H]1C(=O)N2C(C(=O)[O-])=C(CSc3nc(-c4ccc(O)c(O)c4)cs3)CS[C@H]12)c1csc(N)n1.[Na+] [compound 48, sodium 7β-[2-(2-aminothiazol-4-yl)-2-ethoxyiminoacetamido]-3-[4-(3,4-dihydroxyphenyl)-thiazol-2-yl]thiomethyl-3-cephem-4-carboxylate] | 0.1 | 0.78 |  | 0.39 | 1.56 | 0.05 | < 0.006 | 0.1 | 0.0125 | 0.05 | 3.12 | 0.39 | 1.56 | 0.39 | 0.05 | 0.025 |  |  |  | 6.25 | MIC (E. coli GN5482; [4]): 1.56 µg/mL; MIC (S. marcescens IAM 1184): 0.1 µg/mL; MIC (Ps. aeruginosa AKR17; AKR17, 16 h): 50 µg/mL; MIC (Ps. cepacia 23; Burkholderia cepacia, 23, 16 h): 0.1 µg/mL
4 | CCON=C(C(=O)NC1C(=O)N2C(C(=O)O)=C(CSc3nc(C(=O)O)c(-c4ccc(O)c(O)c4)s3)CSC12)c1csc(N)n1 (stereo not drawn) [compound 53, disodium 7β-[2-(2-aminothiazol-4-yl)-2-ethoxyiminoacetamido]-3-[4-carboxylate-5-(3,4-dihydroxyphenyl)thiazol-2-yl]thiomethyl-3-cephem-4-carboxylate] |  | 0.39 | 3.12 | 0.78 | 3.12 | 0.1 | < 0.006 | 0.05 | 0.0125 | 0.025 | 12.5 | 3.12 | 3.12 | 0.39 | 0.025 | 0.0125 | 0.05 | 50 | 0.025 | 6.25 | MIC (E. cloacae 963; [9]): 0.1 µg/mL
5 | CCO/N=C(\C(=O)N[C@@H]1C(=O)N2C(C(=O)O)=C(CSc3ncc(-c4ccc(OC(C)=O)c(OC(C)=O)c4)o3)CS[C@H]12)c1csc(N)n1 [compound 67, disodium 3-[5-(3,4-diacetoxyphenyl)-oxazol-2-yl]thiomethyl-7β-[2-(2-aminothiazol-4)-2-ethoxyiminoacetamido]-3-cephem-4-carboxylate] |  | 0.39 | 3.12 | 0.39 | 1.56 | 0.1 | < 0.006 | 0.05 | 0.0125 | 0.025 | 3.12 |  | 1.56 | 0.39 | 0.1 | 0.0125 | 0.1 | 50 | 0.05 | 6.25 | MIC (E. cloacae 963; [9]): 0.1 µg/mL; MIC (Ps. aeruginosa AK 109; read-out: Minimum Inhibitory Concentration (MIC), Ps. aeruginosa AK 109, 10^6 CFU/ml): 1.56 µg/mL
